Here are results for 20 compounds from patent publication US8440660B2 (Santen Pharmaceutical Co., Ltd., priority 2006, dated 2013).

In this assay the target is T1, Glucocorticoid Receptor (GR) (Homo sapiens, UniProt P04150).
T1 construct: purchased Invitrogen P2816
T1 sequence (P04150 1-777): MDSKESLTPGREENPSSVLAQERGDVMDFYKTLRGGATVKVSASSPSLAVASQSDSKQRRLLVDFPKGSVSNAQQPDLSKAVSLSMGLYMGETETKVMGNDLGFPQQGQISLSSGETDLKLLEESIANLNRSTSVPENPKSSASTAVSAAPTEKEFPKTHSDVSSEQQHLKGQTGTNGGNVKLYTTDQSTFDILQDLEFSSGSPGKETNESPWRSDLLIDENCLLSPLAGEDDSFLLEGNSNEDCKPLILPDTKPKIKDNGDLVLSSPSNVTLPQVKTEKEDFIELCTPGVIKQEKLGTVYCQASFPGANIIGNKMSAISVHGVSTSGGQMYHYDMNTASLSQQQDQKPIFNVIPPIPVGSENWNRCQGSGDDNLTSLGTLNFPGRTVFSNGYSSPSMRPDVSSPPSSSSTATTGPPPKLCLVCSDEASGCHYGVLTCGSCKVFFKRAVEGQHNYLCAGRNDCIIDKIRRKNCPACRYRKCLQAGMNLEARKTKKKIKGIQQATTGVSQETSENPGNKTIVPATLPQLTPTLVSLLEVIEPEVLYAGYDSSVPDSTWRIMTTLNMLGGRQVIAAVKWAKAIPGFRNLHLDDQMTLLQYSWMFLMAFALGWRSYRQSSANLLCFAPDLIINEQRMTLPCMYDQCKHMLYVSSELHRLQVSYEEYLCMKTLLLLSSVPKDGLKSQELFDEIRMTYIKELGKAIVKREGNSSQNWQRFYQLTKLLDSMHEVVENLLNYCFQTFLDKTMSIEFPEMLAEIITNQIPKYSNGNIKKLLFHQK
Put plainly: GR receptor competitor assay by fluorescence polarization (Invitrogen GR competitor assay kit, cat No. P2816). The conditions noted are these: 20 μM test compound solution, 10 μL per well plus 5 μL 4×GS1 and 5 μL 4×GR solution; recombinant human GR; 2 to 4 hours at room temperature; a ratio of 100% or more is indicated by 100%; read-out: GR Binding ratio (%). Here is the method:
A detailed explanation of this matter will be described in the section of “Pharmacological Test” in Examples described below. In order to find the usefulness of the present compound as a pharmaceutical, a glucocorticoid receptor competitor assay was carried out by a fluorescence polarization method by using a glucocorticoid receptor competitor assay kit (manufactured by Invitrogen, cat No P2816) to study the glucocorticoid receptor binding activity of the present compound.
1. Evaluation Test for Binding Activity to Glucocorticoid Receptor (Hereinafter Referred to as “GR”)
In order to evaluate a binding activity to GR, a receptor competitor assay was carried out by a fluorescence polarization method. In the assay, a GR competitor assay kit (manufactured by Invitrogen, cat No. P2816) was used, and a procedure was carried out according to the protocol attached to the kit. Hereinafter, the specific method will be described.
(Preparation of Reagents)
GR screening buffer: A buffer containing 10 mM potassium phosphate (pH 7.4), 20 mM sodium molybdate (Na2MoO4), 0.1 mM ethylene diamine tetraacetic acid (EDTA), 5 mM dithiothreitol (DTT), 0.1 mM stabilizing peptide and 2% dimethylsulfoxide was prepared.
4×GS1 solution: Fluormone™ GS1, which is a fluorescent glucocorticoid ligand, was diluted with GR screening buffer, whereby a 4 nM solution was prepared.
4×GR solution: Recombinant human GR was diluted with GR screening buffer, whereby a 16 nM solution was prepared.
(Preparation of Test Compound Solution)
After a test compound was dissolved in dimethylsulfoxide, the resulting solution was diluted with GR screening buffer, whereby a 20 μM test compound solution was prepared.
(Test Method and Measurement Method)
1) The test compound solution was added in an amount of 10 μL into each well of a 384-well plate, and then, 4×GS1 solution and 4×GR solution were added in an amount of 5 μL into each well, respectively.
2) The plate was incubated in a dark place at room temperature for 2 to 4 hours.
3) By using a multimode plate reader, Analyst™ HT (manufactured by LJL Biosystems), fluorescence polarization of each well was measured. As the blank, a well containing GR screening buffer in place of the test compound and 4×GS1 solution was used.
4) The same procedure as that in the above 1) to 3) was carried out except that GR screening buffer was used in place of the test compound solution, and the obtained result was taken as the negative control.
5) The same procedure as that in the above 1) to 3) was carried out except that 2 mM dexamethasone was used in place of the test compound solution, and the obtained result was taken as the positive control.
(Calculation Equation of GR Binding Ratio)
A GR binding ratio (%) was calculated from the following equation. GR binding ratio (%)=100×[1−(fluorescence polarization of test compound solution−fluorescence polarization of positive control solution)/(fluorescence polarization of negative control solution−fluorescence polarization of positive control solution)] (Test Results and Discussion)
In general terms: In fluorescence polarisation assays a small probe gives low polarisation when free and higher when bound to something large.

Counter-ions that a name gives are not always drawn.

For `COC(=O)c1cccc(C(=O)Oc2ccc(-c3ccc4c(c3COc3cc(F)ccc3C)C(C)=CC(C)(C)N4)c(OC)c2)c1` [Compound 1-68, 5-(5-Fluoro-2-methylphenoxymethyl)-6-[2-methoxy-4-(3-methoxycarbonylbenzoyloxy)phenyl]-2,2,4-trimethyl-1,2-dihydroquinoline], the inhibition at 10 µM came out at 100%.

Regarding `COc1ccc(OC(=O)c2ccncc2)cc1-c1ccc2c(c1COc1cc(F)ccc1C)C(C)=CC(C)(C)N2` [Compound 1-45, 5-(5-Fluoro-2-methylphenoxymethyl)-6-[2-methoxy-5-(pyridin-4-ylcarbonyloxy)phenyl]-2,2,4-trimethyl-1,2-dihydroquinoline], the inhibition at 10 µM stood at 95%. `COc1cc(OC(=O)c2ccc([N+](=O)[O-])o2)ccc1-c1ccc2c(c1COc1cc(F)ccc1C)C(C)=CC(C)(C)N2` [Compound 1-86, 5-(5-Fluoro-2-methylphenoxymethyl)-6-[2-methoxy-4-(5-nitrofuran-2-ylcarbonyloxy)phenyl]-2,2,4-trimethyl-1,2-dihydroquinoline]: the inhibition at 10 µM amounted to 91%. To `COc1cccc(NC(=O)Oc2ccc(-c3ccc4c(c3COc3cc(F)ccc3C)C(C)=CC(C)(C)N4)c(OC)c2)c1` [Compound 6-12, 5-(5-Fluoro-2-methylphenoxymethyl)-6-[2-methoxy-4-(3-methoxyphenylaminocarbonyloxy)phenyl]-2,2,4-trimethyl-1,2-dihydroquinoline] belongs 98%.

`COc1ccc([N+](=O)[O-])cc1OCc1c(-c2ccc(OC(=O)c3cccnc3C)cc2OC)ccc2c1C(C)=CC(C)(C)N2` [Compound 1-101, 6-[2-Methoxy-4-(2-methylpyridin-3-ylcarbonyloxy)phenyl]-5-(2-methoxy-5-nitrophenoxymethyl)-2,2,4-trimethyl-1,2-dihydroquinoline]: the inhibition at 10 µM stood at 99%. Next, `COc1cc(OS(=O)(=O)CCC(F)(F)F)ccc1-c1ccc2c(c1COc1cc(F)ccc1C)C(C)=CC(C)(C)N2` [Compound 4-30, 5-(5-Fluoro-2-methylphenoxymethyl)-6-[2-methoxy-4-(3,3,3-trifluoroproprylsulfonyloxy)phenyl]-2,2,4-trimethyl-1,2-dihydroquinoline]: 100%; `COc1cc(OC(=O)c2ccco2)ccc1-c1ccc2c(c1COc1cc([N+](=O)[O-])ccc1C)C(C)=CC(C)(C)N2` [Compound 1-95, 6-[4-(Furan-2-ylcarbonyloxy)-2-methoxyphenyl]-5-(2-methyl-5-nitrophenoxymethyl)-2,2,4-trimethyl-1,2-dihydroquinoline]: 93%.

In the case of `COc1cc(OC(=O)c2ccsc2)ccc1-c1ccc2c(c1COc1cc(F)ccc1C)C(C)=CC(C)(C)N2` [Compound 1-18, 5-(5-Fluoro-2-methylphenoxymethyl)-6-[2-methoxy-4-(thiophen-3-ylcarbonyloxy)phenyl]-2,2,4-trimethyl-1,2-dihydroquinoline], the inhibition at 10 µM was found to be 100%.

In the case of `COc1cc(OC(=O)c2cncs2)ccc1-c1ccc2c(c1COc1cc(F)ccc1C)C(C)=CC(C)(C)N2` [Compound 1-55, 5-(5-Fluoro-2-methylphenoxymethyl)-6-[2-methoxy-4-(thiazol-5-ylcarbonyloxy)phenyl]-2,2,4-trimethyl-1,2-dihydroquinoline], the inhibition at 10 µM turned out to be 100%. Consider `COc1cc(OC(=O)c2ccncc2F)ccc1-c1ccc2c(c1COc1cc(F)ccc1C)C(C)=CC(C)(C)N2` [Compound 1-91, 5-(5-Fluoro-2-methylphenoxymethyl)-6-[4-(3-fluoropyridin-4-ylcarbonyloxy)-2-methoxyphenyl]-2,2,4-trimethyl-1,2-dihydroquinoline], for which the inhibition at 10 µM was found to be 96%. Consider `COc1cc(OS(=O)(=O)CC(C)C)ccc1-c1ccc2c(c1COc1cc(F)ccc1C)C(C)=CC(C)(C)N2` [Compound 4-28, 5-(5-Fluoro-2-methylphenoxymethyl)-6-(4-isobutylsulfonyloxy-2-methoxyphenyl)-2,2,4-trimethyl-1,2-dihydroquinoline], for which the inhibition at 10 µM turned out to be 100%. To `COc1ccc([N+](=O)[O-])cc1OCc1c(-c2ccc(OC(=O)c3ccccc3OC)cc2OC)ccc2c1C(C)=CC(C)(C)N2` [Compound 1-102, 6-[2-Methoxy-4-(2-methoxybenzoyloxy)phenyl]-5-(2-methoxy-5-nitrophenoxymethyl)-2,2,4-trimethyl-1,2-dihydroquinoline] belongs 100%; to `COc1ccc(C(=O)Oc2ccc(-c3ccc4c(c3COc3cc(F)ccc3C)C(C)=CC(C)(C)N4)c(OC)c2)cc1` [Compound 1-6], 100%. Turning to `COc1cc(OC(=O)c2cccs2)ccc1-c1ccc2c(c1COc1cc(F)ccc1C)C(C)=CC(C)(C)N2` [Compound 1-31, 5-(5-Fluoro-2-methylphenoxymethyl)-6-[2-methoxy-4-(thiophen-2-ylcarbonyloxy)phenyl]-2,2,4-trimethyl-1,2-dihydroquinoline], the inhibition at 10 µM was 100%. With `COc1cc(OC(=O)CN)ccc1-c1ccc2c(c1COc1cc(F)ccc1C)C(C)=CC(C)(C)N2` [Compound 3-1, 6-(4-Aminoacetoxy-2-methoxyphenyl)-5-(5-fluoro-2-methylphenoxymethyl)-2,2,4-trimethyl-1,2-dihydroquinoline monohydrochloride], the inhibition at 10 µM was 100%. With `COc1cc(OC(=O)c2ccncc2)ccc1-c1ccc2c(c1COc1cc(F)ccc1C)C(C)=CC(C)(C)N2` [Compound 1-43, 5-(5-Fluoro-2-methylphenoxymethyl)-6-[2-methoxy-4-(pyridin-4-ylcarbonyloxy)phenyl]-2,2,4-trimethyl-1,2-dihydroquinoline], the inhibition at 10 µM is 100%. To `COc1cc(OC(=O)c2cccnc2C)ccc1-c1ccc2c(c1COc1cc([N+](=O)[O-])ccc1C)C(C)=CC(C)(C)N2` [Compound 1-122, 6-[2-Methoxy-4-(2-methylpyridin-3-ylcarbonyloxy)phenyl]-5-(2-methyl-5-nitrophenoxymethyl)-2,2,4-trimethyl-1,2-dihydroquinoline] belongs 100%. To `COc1ccc(OC(=O)c2ccccn2)cc1-c1ccc2c(c1COc1cc(F)ccc1C)C(C)=CC(C)(C)N2` [Compound 1-44, 5-(5-Fluoro-2-methylphenoxymethyl)-6-[2-methoxy-5-(pyridin-2-ylcarbonyloxy)phenyl]-2,2,4-trimethyl-1,2-dihydroquinoline] belongs 100%; to `COc1cc(OC(=O)c2ccnc(Cl)c2)ccc1-c1ccc2c(c1COc1cc(F)ccc1C)C(C)=CC(C)(C)N2` [Compound 1-90, 6-[4-(2-Chloropyridin-4-ylcarbonyloxy)-2-methoxyphenyl]-5-(5-fluoro-2-methylphenoxymethyl)-2,2,4-trimethyl-1,2-dihydroquinoline], 95%. To `COc1cc(OC(=O)c2ccco2)ccc1-c1ccc2c(c1COc1cc(F)ccc1C)C(C)=CC(C)(C)N2` [Compound 1-19, 5-(5-Fluoro-2-methylphenoxymethyl)-6-[4-(furan-2-ylcarbonyloxy)-2-methoxyphenyl]-2,2,4-trimethyl-1,2-dihydroquinoline] belongs 100%.
